# Laboratory results: patent publication US5972927A, “Diazepinoindoles as phosphodiesterase 4 inhibitors” (Jouveinal, priority 1996, dated 1999)
# Counter-ions that a name gives are not always drawn.
# What was measured:
# [1] = biological target: PDE 4; test: Inhibition of PDE 4 compared with rolipram, enzyme preparation obtained from the line U937; format: biochemical, human; settings: ratio to rolipram on the same enzymatic preparation; PDE 4 from U937 line; inhibitor 0.1 to 100 μM
# Protocol: The capacity of the compounds of formula (I) of the invention to inhibit cyclic nucleotide phosphodiesterases is evaluated by measuring their IC50 (concentration necessary to inhibit the enzymatic activity by 50%). In the case of PDEs 4, this value is compared to the IC50 of rolipram, a PDE 4-specific inhibitor, relative to the IC50 of rolipram on the IC50 of the product to be tested with respect to the same enzymatic preparation.
# The various types of phosphodiesterase are obtained partially purified on a DEAE-cellulose column from guinea pig trachea and dog aorta according to a method adapted from W. J. Thompson et al., 1979, Advances in Cyclic Nucleotide Research, Vol. 10: 69-92, ed. G. Brooker et al. Raven Press, New York, and from P. J. Silver et al., 1988, Eur. J. Pharmacol. 150: 85-94, and from the U937 cell line of human origin, according to a method adapted from T. J. Torphy et al., 1992, J. Pharm. Exp. Ther. 263: 1195-1205.
# Measurement of the enzymatic activity for the various types of PDE, and in particular for the PDEs 4, is then made according to a method also adapted from W. J. Thompson, Ibidem.
# In order to determine the IC50, the enzymatic activity is measured in the presence of the inhibitor over a range of concentrations from 0.1 to 100 μM.
# The following table illustrates the inhibitory activity of PDE 4 when compared with that of rolipram on an enzyme preparation obtained from the line U937.
# [2] = prior art; cited from earlier work
# [3] = system: inflammatory cells in rodents; settings: in vitro; prior art; cited from earlier work
Compound,IC50 rolipram / IC50 example [1],also measured
Nc1cc2c3c(c1)C(c1ccccc1)=N[C@@H](NC(=O)c1ccncc1)C(=O)N3CC2 [12A (salt)],5.7,
"O=C(N[C@@H]1N=C(c2ccccc2)c2cc(O)cc3c2N(CC3)C1=O)c1cc2ccccc2cn1 [Example 1, (3R)-Isoguinoline-3-carboxylic acid (9-hydroxy-4-oxo-1-phenyl-3,4,6,7-tetrahydro-[1,4]diazepino[6,7,1-hi]indol-3-yl)amide]",1.9,
"Nc1cc2c3c(c1)C(c1ccccc1)=N[C@@H](NC(=O)c1cc(Cl)c(N)c(Cl)c1)C(=O)N3CC2 [Example 4, (3R)-4-Amino-N-(9-amino-4-oxo-1-phenyl-3,4,6,7-tetrahydro[1,4]diazepino [6,7,1-hi]indol-3-yl)-3,5-dichlorobenzamide]",33.0,
"COc1cc(N)c(Cl)cc1C(=O)N[C@@H]1N=C(c2ccccc2)c2cc(N)cc3c2N(CC3)C1=O [Example 8, (3R)-4-Amino-N-(9-amino-4-oxo-1-phenyl-3,4,6,7-tetrahydro[1,4]diazepino[6,7,1-hi]indol-3-yl)-5-chloro-2-methoxybenzamide]",3.4,
"Nc1cc2c3c(c1)C(c1ccccc1)=N[C@@H](NC(=O)c1ccncc1)C(=O)N3CC2 [Example 12, (3R)-N-(9-Amino-4-oxo-1-phenyl-3,4,6,7-tetra-hydro[1,4]diazepinor [6,7,1-hi]indol-3-yl)-isonicotinamide]",2.0,
"CC(C)(C)OC(=O)Nc1cnccc1C(=O)N[C@@H]1N=C(c2ccccc2)c2cc(N)cc3c2N(CC3)C1=O [Example 13, (3R)-3-t-Butyloxycarbonylamino-N-(9-amino-4-oxo-1-phenyl-3,4,6,7-tetrahydro[1,4]diazepino[6,7,1-hi]indol-3-yl)isonicotinamide]",1.6,
"Nc1cc2c3c(c1)C(c1ccccc1)=N[C@@H](NC(=O)c1cc4ccccc4cn1)C(=O)N3CC2 [Example 18, (3R)-Isoquinoline-3-carboxylic acid (9-amino-4-oxo-1-phenyl-3,4,6,7-tetrahydro[1,4]-diazepino[6,7,1-hi]indol-3-yl)amide]",11.0,
"Nc1cc2c3c(c1)C(c1ccccc1)=N[C@@H](NC(=O)c1cnc4ccccc4c1)C(=O)N3CC2 [Example 19, (3R)-Quinoline-3-carboxylic acid (9-amino-4-oxo-1-phenyl-3,4,6,7-tetrahydro[1,4]-diazepino[6,7,1-hi]indol-3-yl)amide]",1.4,
"Cc1cc2nnc(C(=O)N[C@@H]3N=C(c4ccccc4)c4cc(N)cc5c4N(CC5)C3=O)c(C)n2n1 [Example 20, (3R)-4,7-Dimethylpyrazolo[5,1-c][1,2,4]triazine-3-carboxylic acid (9-amino-4-oxo-1-phenyl-3,4,6,7-tetrahydro[1,4]-diazepino[6,7,1-hi]indol-3-yl)amide]",1.1,
"CN(C)c1cc2c3c(c1)C(c1ccccc1)=N[C@@H](NC(=O)c1cc(Cl)c(N)c(Cl)c1)C(=O)N3CC2 [Example 21, (3R)-4-Amino-3,5-dichloro-N-(9-dimethylamino-4-oxo-1-phenyl-3,4,6,7-tetrahydro[1,4]-diazepino[6,7,1-hi]indol-3-yl)benzamide]",3.3,
"Nc1cc2c3c(c1)C(c1ccccc1)=N[C@@H](NC(=O)c1cc4ccccc4o1)C(=O)N3CC2 [Example 30, (3R)N-(9-amino-4-oxo-1-phenyl-3,4, 67-tetrahydro[1,4]diazepino[6,7,1-hi]indol-3-yl)-2-benzofuranecarboxamide]",15.0,
"Cc1cc2nnc(C(=O)N[C@@H]3N=C(c4ccccc4)c4cc(N5CCCC5)cc5c4N(CC5)C3=O)c(C)n2n1 [Example 32, (3R) 4,7-dimethyl-pyrazolo[5,1-c][1,2,4]triazine-3-carboxylic acid [4-oxo-1-pheny-9-(pyrrolidin-1-yl)-3,4,6,7-tetrahydro[1,4]diazepino[6,7,1-hi]indol-3-yl)-amide]",4.0,
COc1ccc(C2CNC(=O)C2)cc1OC1CCCC1 (stereo not shown) [rolipram],,"undesirable effects [2]: undesirable effects of the type involving nausea and vomiting; activity of inflammatory cells in rodents [3]: inhibits the activity of inflammatory cells in rodents: inhibition of the synthesis of mediators by mastocytes, eosinophil and basophil polymorphonuclear leukocytes and monocytes; inhibition of chemotaxis and of the degranulation of polymorphonuclear leukocytes"
Cn1c(=O)c2[nH]cnc2n(C)c1=O [theophylline],,therapeutic index [2]: low therapeutic index; undesirable effects [2]: undesirable effects such as nausea and headaches
